Measurements from PMC3026633 (Neuropharmacology, 2010).

Legend:
α1E122Cβ2γ2 GABAR = α1E122Cβ2γ2 GABAR (Rattus norvegicus, UniProt P18508+P62813+P63138, E149C); assay: Two-electrode voltage clamp of GABA-gated current in Xenopus oocytes; type: cell-based
α1R131Cβ2γ2 GABAR = α1R131Cβ2γ2 GABAR (Rattus norvegicus, UniProt P18508+P62813+P63138, R158C); assay: as above; type: cell-based; conditions: 1μM flumazenil
α1β2P206Cγ2 GABAR = α1β2P206Cγ2 GABAR (Rattus norvegicus, UniProt P18508+P62813+P63138, P230C); assay: as above; type: cell-based; conditions: 100nM DMCM, saturating
Chain of α1β2P206Cγ2 GABAR (P62813 28-455): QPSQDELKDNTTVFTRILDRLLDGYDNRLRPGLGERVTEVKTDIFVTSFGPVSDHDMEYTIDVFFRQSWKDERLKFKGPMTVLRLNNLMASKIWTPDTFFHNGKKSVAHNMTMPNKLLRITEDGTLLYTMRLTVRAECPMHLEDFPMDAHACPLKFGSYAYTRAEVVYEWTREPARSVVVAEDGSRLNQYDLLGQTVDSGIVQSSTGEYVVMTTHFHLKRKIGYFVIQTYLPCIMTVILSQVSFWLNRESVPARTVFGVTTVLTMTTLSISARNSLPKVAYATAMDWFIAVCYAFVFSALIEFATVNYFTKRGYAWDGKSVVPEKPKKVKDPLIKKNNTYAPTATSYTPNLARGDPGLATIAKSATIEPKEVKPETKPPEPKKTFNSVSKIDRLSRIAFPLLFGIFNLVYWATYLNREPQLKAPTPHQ
Chain of α1β2P206Cγ2 GABAR (P63138 25-474 P230C limits assumed): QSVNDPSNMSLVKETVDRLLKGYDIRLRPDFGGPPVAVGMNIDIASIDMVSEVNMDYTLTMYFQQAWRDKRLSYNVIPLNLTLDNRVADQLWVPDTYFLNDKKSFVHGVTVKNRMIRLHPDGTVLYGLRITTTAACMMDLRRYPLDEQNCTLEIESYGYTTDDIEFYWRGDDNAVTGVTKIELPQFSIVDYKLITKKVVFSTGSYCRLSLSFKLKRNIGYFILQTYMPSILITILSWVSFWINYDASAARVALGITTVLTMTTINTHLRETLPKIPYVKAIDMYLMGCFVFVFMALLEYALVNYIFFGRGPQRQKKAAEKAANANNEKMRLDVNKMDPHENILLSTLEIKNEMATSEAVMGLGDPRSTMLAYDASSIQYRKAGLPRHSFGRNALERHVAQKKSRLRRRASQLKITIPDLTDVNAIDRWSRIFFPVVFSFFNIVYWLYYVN
Chain of α1β2P206Cγ2 GABAR (P18508 39-466): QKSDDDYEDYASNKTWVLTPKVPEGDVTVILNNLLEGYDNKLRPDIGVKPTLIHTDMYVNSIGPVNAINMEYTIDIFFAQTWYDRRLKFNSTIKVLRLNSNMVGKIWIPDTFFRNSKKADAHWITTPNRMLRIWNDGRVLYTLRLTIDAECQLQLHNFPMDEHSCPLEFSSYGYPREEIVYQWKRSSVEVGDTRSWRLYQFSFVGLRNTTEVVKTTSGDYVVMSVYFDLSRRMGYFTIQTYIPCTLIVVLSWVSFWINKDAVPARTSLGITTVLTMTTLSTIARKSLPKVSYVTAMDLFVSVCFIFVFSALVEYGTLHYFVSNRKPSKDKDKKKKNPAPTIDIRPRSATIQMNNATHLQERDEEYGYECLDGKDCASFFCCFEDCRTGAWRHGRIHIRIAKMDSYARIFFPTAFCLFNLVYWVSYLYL

wild-type α1β2γ2 GABAR = wild-type α1β2γ2 GABAR (Rattus norvegicus, UniProt P18508+P62813+P63138); conditions: WT GABARs; DMCM; ref Boileau and Czajkowski, 1999; Hanson and Czajkowski, 2008; cited from earlier work
Chain of wild-type α1β2γ2 GABAR (P62813 28-455): as the sequence (P62813 28-455) above
Chain of wild-type α1β2γ2 GABAR (P63138 25-474 limits assumed): as the sequence (P63138 25-474 P230C limits assumed) above, with C206P counted along it
Chain of wild-type α1β2γ2 GABAR (P18508 39-466): as the sequence (P18508 39-466) above

Chain of α1E122Cβ2γ2 GABAR (P62813 28-455 E149C): as the sequence (P62813 28-455) above, with E122C counted along it
Chain of α1E122Cβ2γ2 GABAR (P63138 25-474 limits assumed): as the sequence (P63138 25-474 P230C limits assumed) above, with C206P counted along it
Chain of α1E122Cβ2γ2 GABAR (P18508 39-466): as the sequence (P18508 39-466) above
Chain of α1R131Cβ2γ2 GABAR (P62813 28-455 R158C): as the sequence (P62813 28-455) above, with R131C counted along it
Chain of α1R131Cβ2γ2 GABAR (P63138 25-474 limits assumed): as the sequence (P63138 25-474 P230C limits assumed) above, with C206P counted along it
Chain of α1R131Cβ2γ2 GABAR (P18508 39-466): as the sequence (P18508 39-466) above

Compound: CCOC(=O)c1ncn2c1CN(C)C(=O)c1cc(F)ccc1-2 [flumazenil]
- effect on GABA-gated current (α1E122Cβ2γ2 GABAR; 1μM flumazenil): had no effect
- effect on GABA-gated current (α1R131Cβ2γ2 GABAR): had no effect

Compound: CCc1c(C(=O)OC)ncc2[nH]c3cc(OC)c(OC)cc3c12 [DMCM, 3-carbomethoxy-4-ethyl-6,7-dimethoxy-β-carboline]
- inhibition of IGABA (IGABA+DRUG/IGABA) (α1β2P206Cγ2 GABAR): 0.45 fold
- inhibition of IGABA (IGABA+DRUG/IGABA) (α1E122Cβ2γ2 GABAR; 100nM DMCM, saturating): 0.45 fold
- maximal attenuation of GABA current (IGABA+DRUG/IGABA) (wild-type α1β2γ2 GABAR): 0.62 fold
